# Assay results from patent US20060276464A1, “Diarylsulfone sulfonamides and use thereof” (Wyeth, priority 2005, published 2006).
# Where two headings read alike, the source gives them in different places.
# Molecular target: T1, SFRP-1 (Homo sapiens, UniProt Q8N474)
# T1 sequence (Q8N474 32-314): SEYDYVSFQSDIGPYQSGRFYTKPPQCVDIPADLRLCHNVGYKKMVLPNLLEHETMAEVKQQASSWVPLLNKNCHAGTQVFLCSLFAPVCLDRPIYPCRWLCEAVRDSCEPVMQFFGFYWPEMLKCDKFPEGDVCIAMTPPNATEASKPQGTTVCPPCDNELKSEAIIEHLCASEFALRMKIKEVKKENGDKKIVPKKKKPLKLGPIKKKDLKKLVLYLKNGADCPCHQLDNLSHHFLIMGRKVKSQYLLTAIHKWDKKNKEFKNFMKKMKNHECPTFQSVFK
# Assay: Cell-based assay for in vitro measurement of SFRP-1/SARP2 antagonist activity (U2OS cells co-transfected with 16x TCF-tk-Luciferase reporter, Wnt and hSFRP-1);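 also: U2OS cells co-transfected with a TCF-tk luciferase reporter, a Wnt vector, hSFRP-1 or empty vector and CMV-βgal, luciferase luminescence read in cell lysates alongside βgal activity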
# Conditions: U2OS
# [1] = read-out: Fold Induction with SFRP-1, Conc 15 μM, with SFRP-1, fold induction over SFRP-1 control, single dose
# [2] = read-out: Fold Induction without SFRP-1, Conc 15 μM, without SFRP-1, single dose
# [3] = read-out: Fold Induction with SFRP-1, Conc 30 μM, with SFRP-1, fold induction over SFRP-1 control, single dose
# [4] = read-out: Fold Induction without SFRP-1, Conc 30 μM, without SFRP-1, single dose
# [5] = read-out: Fold Induction with SFRP-1, Conc 15 μM, single dose, luciferase reporter, fold induction over SFRP-1 control, cells with SFRP-1
# [6] = read-out: Fold Induction without SFRP-1, Conc 15 μM, single dose, luciferase reporter, cells without SFRP-1 (specificity control)
SMILES,fold induction at 15 µM [1],fold induction at 15 µM [2],further results
"Cc1ccc(S(=O)(=O)c2ccc(-c3ccccc3)cc2)cc1S(=O)(=O)NCCc1ccccn1 [Example 433, 5-(biphenyl-4-ylsulfonyl)-2-methyl-N-(2-pyridin-2-ylethyl)benzenesulfonamide]",2.5,1.1,
"Cc1ccc(S(=O)(=O)c2ccccc2)cc1S(=O)(=O)NCCc1ccc2c(c1)OCO2 [Example 43, N-[2-(1,3-benzodioxol-5-yl)ethyl]-2-methyl-5-(phenylsulfonyl)benzenesulfonamide]",,,fold induction at 30 µM [3]: 3.6; fold induction at 30 µM [4]: 1
"Cc1ccc(S(=O)(=O)c2ccc(F)cc2)cc1S(=O)(=O)NC[C@@H](C)c1ccccc1 [Example 261, 5-[(4-fluorophenyl)sulfonyl]-2-methyl-N-[(2S)-2-phenylpropyl]benzenesulfonamide]",1.4,0.9,
"Cc1cc(C)c(S(=O)(=O)c2ccc(F)cc2)cc1S(=O)(=O)NCCC1CCOCC1 [Example 333, 5-[(4-fluorophenyl)sulfonyl]-2,4-dimethyl-N-[2-(tetrahydro-2H-pyran-4-yl)ethyl]benzenesulfonamide]",1.7,1,
"COc1ccc(CCNS(=O)(=O)c2cc(S(=O)(=O)c3ccccc3)ccc2OC)cc1OC [Example 153, N-[2-(3,4-dimethoxyphenyl)ethyl]-2-methoxy-5-(phenylsulfonyl)benzenesulfonamide]",1.5,1.1,
"CN(C)CCCNS(=O)(=O)c1cccc(S(=O)(=O)c2ccccc2)c1 [Example 196, N-[3-(dimethylamino)propyl]-3-(phenylsulfonyl)benzenesulfonamide]",,,fold induction at 30 µM [3]: 1.4; fold induction at 30 µM [4]: 1.3
"O=S(=O)(c1ccccc1)c1ccc(Cl)c(S(=O)(=O)N2CCN(CCN3CCOCC3)CC2)c1 [Example 636, 4-[2-(4-{[2-chloro-5-(phenylsulfonyl)phenyl]sulfonyl}piperazin-1-yl)ethyl]morpholine]",,,fold induction at 15 µM [5]: 1.7; fold induction at 15 µM [6]: 1.1
"Cc1ccc(S(=O)(=O)c2ccc(F)cc2)cc1S(=O)(=O)NCCc1ccncc1 [Example 165, 5-[(4-fluorophenyl)sulfonyl]-2-methyl-N-(2-pyridin-4-ylethyl)benzenesulfonamide]",3.3,1,
"Cc1ccc(S(=O)(=O)NCCCn2ccnc2)cc1[S+]([O-])c1ccccc1 (centres unmarked) [Example 306, N-[3-(1H-imidazol-1-yl)propyl]-4-methyl-3-(phenylsulfinyl)benzenesulfonamide]",,,"fold induction at 60 µM (read-out: Fold Induction with SFRP-1, Conc 60 μM, with SFRP-1, fold induction over SFRP-1 control, single dose): 1.3; fold induction at 60 µM (read-out: Fold Induction without SFRP-1, Conc 60 μM, without SFRP-1, single dose): 0.9"
"Cc1ccc(S(=O)(=O)c2cccc(Cl)c2)cc1S(=O)(=O)NCCCn1ccnc1 [Example 342, 5-[(3-chlorophenyl)sulfonyl]-N-[3-(1H-imidazol-1-yl)propyl]-2-methylbenzenesulfonamide]",3.3,1.1,
"COc1ccc(CCNS(=O)(=O)c2cc(S(=O)(=O)c3ccccc3)ccc2C)cc1OC [Example 34, N-[2-(3,4-dimethoxyphenyl)ethyl]-2-methyl-5-(phenylsulfonyl)benzenesulfonamide]",,,fold induction at 30 µM [3]: 1.7; fold induction at 30 µM [4]: 0.6
"CC(=O)c1ccc(S(=O)(=O)c2ccc(C)c(S(=O)(=O)NCCc3ccccn3)c2)cc1 [Example 403, 5-[(4-acetylphenyl)sulfonyl]-2-methyl-N-(2-pyridin-2-ylethyl)benzenesulfonamide]",2.5,1.1,
"CN(C)CCNS(=O)(=O)c1cccc(S(=O)(=O)c2ccccc2)c1 [Example 194, N-[2-(dimethylamino)ethyl]-3-(phenylsulfonyl)benzenesulfonamide]",,,fold induction at 30 µM [3]: 1.3; fold induction at 30 µM [4]: 1.2
"Cc1ccc(S(=O)(=O)c2ccccc2Cl)cc1S(=O)(=O)NCCCn1ccnc1 [Example 377, 5-[(2-chlorophenyl)sulfonyl]-N-[3-(1H-imidazol-1-yl)propyl]-2-methylbenzenesulfonamide]",1.9,1.1,
"Cc1ccc(S(=O)(=O)c2ccccc2)cc1S(=O)(=O)N(C)CCc1ccccc1 [Example 278, N,2-dimethyl-N-(2-phenylethyl)-5-(phenylsulfonyl)benzenesulfonamide]",1,0.9,
"Cc1ccc(S(=O)(=O)c2cccs2)cc1S(=O)(=O)NCCCn1ccnc1 [Example 362, N-[3-(1H-imidazol-1-yl)propyl]-2-methyl-5-(2-thienylsulfonyl)benzenesulfonamide]",2.4,1.1,

SMILES,fold induction at 15 µM [1],fold induction at 15 µM [2],further results
"O=S(=O)(NCCc1ccccc1)c1cc(S(=O)(=O)c2ccccc2)ccc1Cl [Example 334, 2-chloro-N-(2-phenylethyl)-5-(phenylsulfonyl)benzenesulfonamide]",1.5,1.2,
"COc1ccc(S(=O)(=O)c2ccccc2)cc1S(=O)(=O)NC[C@H](C)c1ccccc1 [Example 271, 2-methoxy-N-[(2R)-2-phenylpropyl]-5-(phenylsulfonyl)benzenesulfonamide]",1.7,1.2,
"CCOc1ccc(CCNS(=O)(=O)c2cc(S(=O)(=O)c3ccccc3)ccc2C)cc1OC [Example 55, N-[2-(4-ethoxy-3-methoxyphenyl)ethyl]-2-methyl-5-(phenylsulfonyl)benzenesulfonamide]",,,fold induction at 30 µM [3]: 3.1; fold induction at 30 µM [4]: 0.9
"Cc1ccc(S(=O)(=O)c2ccc(C(C)(O)c3ccccc3)cc2)cc1S(=O)(=O)NCCc1ccccn1 (centres unmarked) [Example 407, 5-{[4-(1-hydroxy-1-phenylethyl)phenyl]sulfonyl}-2-methyl-N-(2-pyridin-2-ylethyl)benzenesulfonamide]",1.2,0.9,
"CCc1ccc(S(=O)(=O)c2ccccc2)cc1S(=O)(=O)NCCc1cccc(F)c1 [Example 146, 2-ethyl-N-[2-(3-fluorophenyl)ethyl]-5-(phenylsulfonyl)benzenesulfonamide]",2.1,1.3,
"CCN(CC)CCN1CCN(S(=O)(=O)c2cc(S(=O)(=O)c3ccccc3)ccc2C)CC1 [Example 280, N,N-diethyl-N-[2-(4-{[2-methyl-5-(phenylsulfonyl)phenyl]sulfonyl}piperazin-1-yl)ethyl]amine]",2.7,1.5,
"CCc1ccc(S(=O)(=O)c2ccccc2)cc1S(=O)(=O)N1CCN(CCN2CCOCC2)CC1 [Example 287, 4-[2-(4-{[2-ethyl-5-(phenylsulfonyl)phenyl]sulfonyl}piperazin-1-yl)ethyl]morpholine]",2.1,1.2,
"COCCNS(=O)(=O)c1cc(S(=O)(=O)c2ccc(F)cc2)ccc1C [Example 175, 5-[(4-fluorophenyl)sulfonyl]-N-(2-methoxyethyl)-2-methylbenzenesulfonamide]",2.5,0.9,
"Cc1ccc(S(=O)(=O)c2ccccc2)cc1S(=O)(=O)NC1CCN(Cc2ccccc2)C1 (centres unmarked) [Example 414, N-(1-benzylpyrrolidin-3-yl)-2-methyl-5-(phenylsulfonyl)benzenesulfonamide]",2,1.3,
"Cc1ccc(S(=O)(=O)c2cccc3ccccc23)cc1S(=O)(=O)NCCc1ccccn1 [Example 410, 2-methyl-5-(1-naphthylsulfonyl)-N-(2-pyridin-2-ylethyl)benzenesulfonamide]",2.7,1.3,
"O=C(O)CCNS(=O)(=O)c1cccc(S(=O)(=O)c2ccccc2)c1 [Example 202, N-{[3-(phenylsulfonyl)phenyl]sulfonyl)-beta-alanine]",,,fold induction at 30 µM [3]: 1.1; fold induction at 30 µM [4]: 1.2
"Cc1ccc(S(=O)(=O)c2ccccc2)cc1S(=O)(=O)NC(C)(C)C [Example 395, N-(tert-butyl)-2-methyl-5-(phenylsulfonyl)benzenesulfonamide]",1.2,1,
"CN(CCc1ccccn1)S(=O)(=O)c1cc(S(=O)(=O)c2ccccc2)ccc1Cl [Example 646, 2-chloro-N-methyl-5-(phenylsulfonyl)-N-(2-pyridin-2-ylethyl)benzenesulfonamide]",,,fold induction at 15 µM [5]: 1; fold induction at 15 µM [6]: 1.1
"Cc1ccc(S(=O)(=O)c2ccc(Cl)cc2Cl)cc1S(=O)(=O)NCCCn1ccnc1 [Example 379, 5-[(2,4-dichlorophenyl)sulfonyl]-N-[3-(1H-imidazol-1-yl)propyl]-2-methylbenzenesulfonamide]",1.8,0.9,
"CCN(C)c1ccc(S(=O)(=O)c2ccc(C)c(S(=O)(=O)NCCCn3ccnc3)c2)cc1 [Example 304, 5-({4-[ethyl(methyl)amino]phenyl}sulfonyl)-N-[3-(1H-imidazol-1-yl)propyl]-2-methylbenzenesulfonamide]",1.7,1,
